Measurements as given in ChEMBL document CHEMBL1146833, “A novel series of potent and selective IKK2 inhibitors” (Bioorg Med Chem Lett, 2004).
Where “and” joins values, the source holds several entries; their conditions need not be identical. Equal values may be shown once.

Tests used:
[1] = species on record: Homo sapiens; assay: Selectivity for IKK2/IKK1
[2] = target: T1, Inhibitor of nuclear factor kappa-B kinase subunit alpha (Homo sapiens, UniProt O15111); assay: Inhibitory activity against IKK1
T1 sequence (O15111 whole entry): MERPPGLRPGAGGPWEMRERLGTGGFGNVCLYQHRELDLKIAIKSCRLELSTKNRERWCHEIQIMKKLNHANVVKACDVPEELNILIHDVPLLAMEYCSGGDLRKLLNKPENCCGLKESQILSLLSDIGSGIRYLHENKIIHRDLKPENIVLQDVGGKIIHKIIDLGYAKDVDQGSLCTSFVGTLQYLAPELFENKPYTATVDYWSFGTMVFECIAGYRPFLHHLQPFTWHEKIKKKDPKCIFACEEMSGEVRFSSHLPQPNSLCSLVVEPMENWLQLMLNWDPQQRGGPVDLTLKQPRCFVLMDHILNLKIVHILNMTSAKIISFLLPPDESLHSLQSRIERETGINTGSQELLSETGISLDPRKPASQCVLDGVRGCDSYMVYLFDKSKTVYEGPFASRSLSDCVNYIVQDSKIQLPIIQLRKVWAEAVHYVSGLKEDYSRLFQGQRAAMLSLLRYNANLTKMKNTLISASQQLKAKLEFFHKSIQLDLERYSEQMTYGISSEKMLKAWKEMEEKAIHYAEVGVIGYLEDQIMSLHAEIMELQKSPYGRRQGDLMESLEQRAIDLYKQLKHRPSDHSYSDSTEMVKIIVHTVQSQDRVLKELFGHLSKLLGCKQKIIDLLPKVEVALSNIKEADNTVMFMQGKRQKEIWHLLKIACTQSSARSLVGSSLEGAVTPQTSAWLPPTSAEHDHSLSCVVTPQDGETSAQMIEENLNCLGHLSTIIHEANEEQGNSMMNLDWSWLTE

[3] = target: T2, Inhibitor of nuclear factor kappa-B kinase subunit beta (Homo sapiens, UniProt O14920); assay: Inhibitory activity against IKK2
T2 sequence (O14920 whole entry): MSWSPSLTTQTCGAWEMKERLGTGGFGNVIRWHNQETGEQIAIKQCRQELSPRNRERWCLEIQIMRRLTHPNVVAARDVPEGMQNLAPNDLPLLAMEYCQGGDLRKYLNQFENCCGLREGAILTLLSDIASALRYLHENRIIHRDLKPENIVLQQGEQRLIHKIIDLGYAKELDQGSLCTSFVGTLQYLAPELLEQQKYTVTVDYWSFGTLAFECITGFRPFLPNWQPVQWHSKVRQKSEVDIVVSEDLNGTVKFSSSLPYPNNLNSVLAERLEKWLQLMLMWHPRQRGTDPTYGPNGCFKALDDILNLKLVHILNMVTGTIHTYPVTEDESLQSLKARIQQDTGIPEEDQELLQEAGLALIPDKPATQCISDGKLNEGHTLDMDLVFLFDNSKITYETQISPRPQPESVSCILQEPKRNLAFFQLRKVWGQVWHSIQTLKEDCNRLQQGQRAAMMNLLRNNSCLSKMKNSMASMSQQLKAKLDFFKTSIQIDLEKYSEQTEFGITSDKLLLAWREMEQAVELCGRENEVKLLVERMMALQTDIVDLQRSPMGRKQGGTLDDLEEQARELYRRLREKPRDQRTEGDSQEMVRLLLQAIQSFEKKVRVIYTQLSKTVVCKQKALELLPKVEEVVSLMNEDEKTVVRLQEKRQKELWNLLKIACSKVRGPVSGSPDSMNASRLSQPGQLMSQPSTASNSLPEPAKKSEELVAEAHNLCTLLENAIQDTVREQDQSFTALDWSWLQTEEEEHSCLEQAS

In the case of `O=S(=O)(c1ccc(-c2ccnc(Nc3ccccc3)n2)cc1)N1CCNCC1`, the Selectivity [1] is reported as 13, the IC50 [2] is reported as 1.17 µM and the IC50 [3] is reported as 0.091 µM.
Work on `O=S(=O)(c1ccc(-c2ccnc(Nc3ccc(C(F)(F)F)cc3)n2)cc1)N1CCNCC1` yielded a Selectivity [1] of 8, an IC50 [2] of 3.98 µM and an IC50 [3] of 0.513 µM.
In the case of `COc1ccc(Nc2nccc(-c3ccc(S(=O)(=O)N4CCNCC4)cc3)n2)cc1`, the IC50 [2] is reported as 1.23 µM and the IC50 [3] is reported as 0.214 µM.
Work on `NC(=O)Nc1ccc(Nc2nccc(-c3ccc(S(=O)(=O)N4CCNCC4)cc3)n2)cc1` yielded a Selectivity [1] of 10, an IC50 [2] of 1.48 µM and an IC50 [3] of 0.155 µM.
In the case of `O=S(=O)(c1ccc(-c2ccnc(Nc3cc(F)cc(F)c3)n2)cc1)N1CCNCC1`, the IC50 [2] is reported as 4.07 µM and the IC50 [3] is reported as 0.117 µM.
In the case of `Cc1ccc(Nc2nccc(-c3ccc(S(=O)(=O)N4CCNCC4)cc3)n2)cc1`, the IC50 [2] is reported as 2.09 µM and the IC50 [3] is reported as 0.269 µM.
`N#Cc1cccc(Nc2nccc(-c3ccc(S(=O)(=O)N4CCNCC4)cc3)n2)c1` showed a Selectivity [1] of 62, an IC50 [2] of 5.13 µM and an IC50 [3] of 0.083 µM.
For `COc1cc(Nc2nccc(-c3ccc(S(=O)(=O)N4CCNCC4)cc3)n2)cc(OC)c1OC`, the Selectivity [1] was 1, the IC50 [2] was 0.155 µM and the IC50 [3] was 0.145 µM.
`CC(=O)c1cc2cc(-c3ccc(Nc4nccc(-c5ccc(S(=O)(=O)N6CCNCC6)cc5)n4)cc3)ccc2o1` was tested, and the Selectivity [1] was 65, the IC50 [2] was 1.7 µM and the IC50 [3] was 0.026 µM.
`C[S+]([O-])c1ccc(Nc2nccc(-c3ccc(S(=O)(=O)N4CCNCC4)cc3)n2)cc1` (stereo unspecified) was tested, and the Selectivity [1] was 26, the IC50 [2] was 2.34 µM and the IC50 [3] was 0.091 µM.
`NS(=O)(=O)c1ccc(Nc2nccc(-c3ccc(S(=O)(=O)N4CCNCC4)cc3)n2)cc1` was tested, and the Selectivity [1] was 21, the IC50 [2] was 0.245 µM and the IC50 [3] was 0.011 µM.
`O=[N+]([O-])c1ccc(Nc2nccc(-c3ccc(S(=O)(=O)N4CCNCC4)cc3)n2)cc1` showed a Selectivity [1] of 105, an IC50 [2] of 6.92 µM and an IC50 [3] of 0.066 µM.
For `NC(=O)c1c[nH]c2ccc(-c3ccc(Nc4nccc(-c5ccc(S(=O)(=O)N6CCNCC6)cc5)n4)cc3)cc12`, the Selectivity [1] was 6 and the IC50 [3] was 0.55 µM and 0.146 µM.
Molecule `NC(=O)c1ccc(Nc2nccc(-c3ccc(S(=O)(=O)N4CCNCC4)cc3)n2)cc1` has a Selectivity [1] of 83, an IC50 [2] of 3.98 µM and an IC50 [3] of 0.048 µM.
For `CCCCc1ccc(Nc2nccc(-c3ccc(S(=O)(=O)N4CCNCC4)cc3)n2)cc1`, the Selectivity [1] was 9, the IC50 [2] was 2.69 µM and the IC50 [3] was 0.309 µM.
